These compounds were tested on MV-4-11 (assay: Proliferation inhibition, CellTiter-Glo, MV-4-11). Conditions: Homo sapiens, MV4-11, 96 h; MV-4:11 cells, IC50 (4 days), CellTiter-Glo; read-out: MV-4:11 IC50.
Assay type: cell-based, human
How it was run: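 About 10,000 cells per well in RPMI-1640 with 10% FBS. Compounds added 2 h after seeding at eight concentrations in duplicate (0.2% DMSO as 100% proliferation), then incubated ~96 h at 37° C, 5% CO2. ATP measured by CellTiter-Glo luminescence; IC50 from four-parameter logistic fit.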

**Q.** `CCc1nc(Nc2cccc([C@@H](C)CNC(=O)CN(C)C(=O)/C=C/CN3CCC3)c2)c(C(N)=O)nc1CC` [Compound 508, (R, E)-3-((3-(1-(2-(4-(azetidin-1-yl)-N-methylbut-2-enamido)acetamido)propan-2-yl)phenyl)amino)-5,6-diethylpyrazine-2-carboxamide] was tested. Which IC50 did it give?
**A.** The IC50 was > 500 nM.

**Q.** Which IC50 does the source give for `CCc1nc(C(N)=O)c(Nc2cccc([C@@H](C)CNC(=O)CN(C)C(=O)/C=C/CN3CCC3)c2)nc1N(C)CC` [Compound 518, (R,E)-3-((3-(1-(2-(4-(azetidin-1-yl)-N-methylbut-2-enamido)acetamido)propan-2-yl)phenyl)amino)-6-ethyl-5-(ethyl(methyl)amino)pyrazine-2-carboxamide] here?
**A.** Its IC50 is < 1 nM.

**Q.** `CCc1nc(C(N)=O)c(Nc2ccnc(CCNC(=O)[C@H](C)N(C)C(=O)/C=C/CN(C)C)c2)nc1N(C)C(C)C` [Compound 605, (S, E)-3-((2-(2-(2-(4-(dimethylamino)-N-methylbut-2-enamido)propanamido)ethyl)pyridin-4-yl)amino)-6-ethyl-5-(isopropyl (methyl)amino) pyrazine-2-carboxamide] was tested. Which IC50 did it give?
**A.** Its IC50 is < 1 nM.

**Q.** `CCc1nc(C(N)=O)c(Nc2ccnc(CCNC(=O)[C@H](C)N(C)C(=O)/C=C/CN(C)C)c2)nc1C1CC1` [Compound 310, (S,E)-5-cyclopropyl-3-((2-(2-(2-(4-(dimethylamino)-N-methylbut-2-enamido)propanamido)ethyl)pyridin-4-yl)amino)-6-ethylpyrazine-2-carboxamide] was tested. Which IC50 did it give?
**A.** The IC50 was < 1 nM.

**Q.** With `CCc1nc(C(N)=O)c(Nc2cccc(CCNC(=O)[C@H](C)N(C)C(=O)/C=C/CN(C)C)c2)nc1NC(C)C` [Compound 205, (S,E)-3-((3-(2-(2-(4-(dimethylamino)-N-methylbut-2-enamido)propanamido)ethyl)phenyl)amino)-6-ethyl-5-(isopropylamino)pyrazine-2-carboxamide] as the compound, how does the IC50 read?
**A.** The IC50 was < 1 nM.

**Q.** With `CCCc1nc(Nc2cccc([C@@H](C)CNC(=O)CN(C)C(=O)/C=C/CN3CCC3)c2)c(C(N)=O)nc1CC` [Compound 507, (R,E)-3-((3-(1-(2-(4-(azetidin-1-yl)-N-methylbut-2-enamido)acetamido)propan-2-yl)phenyl)amino)-6-ethyl-5-propylpyrazine-2-carboxamide] as the compound, how does the IC50 read?
**A.** Its IC50 is 1 to 10 nM.

**Q.** How did the IC50 turn out when `CCc1nc(C(N)=O)c(Nc2cccc(CCNC(=O)[C@H](C)N(C)C(=O)/C=C/CN(C)C)c2)nc1N(C)C(C)C` [Compound 204, (S,E)-3-((3-(2-(2-(4-(dimethylamino)-N-methylbut-2-enamido)propanamido)ethyl)phenyl)amino)-6-ethyl-5-(isopropyl(methyl)amino)pyrazine-2-carboxamide] was run?
**A.** The IC50 was < 1 nM.

**Q.** With `CCOc1nc(Nc2cccc(CCNC(=O)CN(C)C(=O)/C=C/CN3CCC3)c2)c(C(N)=O)nc1CC` [Compound 602, (E)-3-((3-(2-(2-(4-(azetidin-1-yl)-N-methylbut-2-enamido)acetamido)ethyl)phenyl)amino)-5-ethoxy-6-ethylpyrazine-2-carboxamide] as the compound, how does the IC50 read?
**A.** Its IC50 is < 1 nM.

**Q.** How did the IC50 turn out when `CCc1nc(C(N)=O)c(Nc2cc(F)cc(CCNC(=O)CN(C)C(=O)/C=C/CN3CCC3)c2)nc1C1CC1` [Compound 516, (E)-3-((3-(2-(2-(4-(azetidin-1-yl)-N-methylbut-2-enamido)acetamido)ethyl)-5-fluorophenyl)amino)-5-cyclopropyl-6-ethylpyrazine-2-carboxamide] was run?
**A.** The IC50 was 1 to 10 nM.

**Q.** For `CCc1nc(C(N)=O)c(Nc2cccc(CCNC(=O)CN(C)C(=O)/C=C/CN(C)C)c2)nc1N(C)CC` [Compound 252, (E)-3-((3-(2-(2-(4-(dimethylamino)-N-methylbut-2-enamido)acetamido)ethyl)phenyl)amino)-6-ethyl-5-(ethyl (methyl)amino) pyrazine-2-carboxamide], which IC50 is on record?
**A.** Its IC50 is < 1 nM.

**Q.** For `CCc1nc(C(N)=O)c(Nc2cccc(CCNC(=O)[C@H](C)N(C)C(=O)/C=C/CNC)c2)nc1N(C)C(C)C` [Compound 307, (S,E)-6-ethyl-5-(isopropyl(methyl)amino)-3-((3-(2-(2-(N-methyl-4-(methylamino)but-2-enamido)propanamido)ethyl)phenyl)amino)pyrazine-2-carboxamide], which IC50 is on record?
**A.** The IC50 was < 1 nM.

**Q.** How did the IC50 turn out when `CCc1nc(C(N)=O)c(Nc2cccc(CCNC(=O)CN(C)C(=O)/C=C/CN3CCC3)c2)nc1N(C)CC` [Compound 516A, (E)-3-((3-(2-(2-(4-(azetidin-1-yl)-N-methylbut-2-enamido)acetamido)ethyl)phenyl)amino)-6-ethyl-5-(ethyl(methyl)amino) pyrazine-2-carboxamide] was run?
**A.** Its IC50 is < 1 nM.

**Q.** With `CCc1nc(C(N)=O)c(Nc2cccc([C@@H](C)CNC(=O)CN(C)C(=O)/C=C/CN3CCC3)c2)nc1C1CC1` [Compound 506, (R,E)-3-((3-(1-(2-(4-(azetidin-1-yl)-N-methylbut-2-enamido)acetamido)propan-2-yl)phenyl)amino)-5-cyclopropyl-6-ethylpyrazine-2-carboxamide] as the compound, how does the IC50 read?
**A.** Its IC50 is 1 to 10 nM.

**Q.** How did the IC50 turn out when `Cc1nc(C(N)=O)c(Nc2cccc(CCNC(=O)CN(C)C(=O)/C=C/CN(C)C)c2)nc1N(C)C(C)C` [Compound 250, (E)-3-((3-(2-(2-(4-(dimethylamino)-N-methylbut-2-enamido)acetamido)ethyl)phenyl)amino)-5-(isopropyl(methyl)amino)-6-methylpyrazine-2-carboxamide] was run?
**A.** The IC50 was < 1 nM.

**Q.** For `CCc1nc(C(N)=O)c(Nc2cccc(CCNC(=O)CN(C)C(=O)/C=C/CN3CCC3)c2)nc1OC(C)C` [Compound 603, (E)-3-((3-(2-(2-(4-(azetidin-1-yl)-N-methylbut-2-enamido)acetamido)ethyl)phenyl)amino)-6-ethyl-5-isopropoxypyrazine-2-carboxamide], which IC50 is on record?
**A.** Its IC50 is < 1 nM.

**Q.** How did the IC50 turn out when `CCc1nc(C(N)=O)c(Nc2ccc(N3CCC(N4CCN(C)CC4)CC3)c(OC)c2)nc1NC1CCOCC1` [Gilteritinib, gilteritinib, reference compound] was run?
**A.** The IC50 was 1 to 10 nM.

**Q.** Which IC50 does the source give for `Cc1nc(C(N)=O)c(Nc2cccc(CCNC(=O)[C@H](C)N(C)C(=O)/C=C/CN(C)C)c2)nc1N(C)C(C)C` [Compound 232, (S, E)-3-((3-(2-(2-(4-(dimethylamino)-N-methylbut-2-enamido)propanamido)ethyl)phenyl)amino)-5-(isopropyl (methyl)amino)-6-methylpyrazine-2-carboxamide] here?
**A.** The IC50 was < 1 nM.

**Q.** Which IC50 does the source give for `CCc1nc(C(N)=O)c(Nc2cccc(CCNC(=O)CN(C)C(=O)/C=C/CN(C)C)c2)nc1C1CC1` [Compound 219, (E)-5-cyclopropyl-3-((3-(2-(2-(4-(dimethylamino)-N-methylbut-2-enamido)acetamido)ethyl)phenyl)amino)-6-ethylpyrazine-2-carboxamide] here?
**A.** Its IC50 is < 1 nM.

**Q.** With `CCc1nc(C(N)=O)c(Nc2cccc([C@@H](C)CNC(=O)CN(C)C(=O)/C=C/CN(C)C)c2)nc1C1CC1` [Compound 504, (R,E)-5-cyclopropyl-3-((3-(1-(2-(4-(dimethylamino)-N-methylbut-2-enamido)acetamido)propan-2-yl)phenyl)amino)-6-ethylpyrazine-2-carboxamide] as the compound, how does the IC50 read?
**A.** Its IC50 is < 1 nM.
